According to paper PMC12652692, “Synthesis and In Vitro Anticancer Evaluation of Novel Phosphonium Derivatives of Chrysin” (International Journal of Molecular Sciences, 2025):

Columns and labels:
Assay in all cases: NCI60 five-dose screen
Format in all cases: cell-based
SNB-75 = details: Homo sapiens; SNB-75, CNS Cancer
Method: (§1) Since all new conjugates (3a–h) had notable antiproliferative activities on several tumor cell lines in the course of the one-dose screening, they were subjected to a five-dose test. […] J. Mol. Sci. 2025, 26, 11063 10 of 10 S.3. NCI60 Screening A detailed description of the NCI screening procedures can also be found on the website of NCI [39], and in our previous work. S.3.1. One-Dose Screen All candidates were examined at first at a single high dose (10 μM) in the full NCI60 cell panel. The value reported for the one-dose test is growth relative to the no-drug control and relative to the time zero number of cells. This made possible the disclosure of both growth inhibition (numbers between 0 and 100) and lethality (numbers less than 0). For example, a value of 100 means no growth inhibition. A value of 20 would mean 80% growth inhibition. A value of 0 means no net growth over the course of the analysis. A value of −20 would mean 20% lethality. A value of −100 means all cells are dead. S.3.2. […] The human tumor cell lines of the cancer screening panel were grown in RPMI 1640 medium containing 5% fetal bovine serum and 2 mM l-glutamine. Characteristically, cells were injected in 96-well microtiter plates in 0.1 mL at plating densities ranging from 5000 to 40,000 cells/well, depending on the doubling time of individual cell lines. After cell inoculation, the microtiter plates were incubated at 37 °C, 5% carbon dioxide, 95% air, and 100% relative humidity for 24 hours before the addition of tested compounds. After 24 hours, 2 plates of each cell line were fixed in situ with Cl3COOH (TCA), to represent a measurement of the cell population for each cell line at the time of drug addition (tz). Tested compounds were solubilized in DMSO at 400-fold the desired final maximum test concentration and stored frozen before application. In the course of the drug addition, an aliquot of frozen concentrate was thawed and diluted to twice the desired final maximum test concentration with a complete medium containing 50 μg mL−1 gentamicin. Additional four, 10-fold or ½ log serial dilutions were produced to furnish a total of five drug concentrations plus control. Aliquots of 0.1 mL of these different drug dilutions were added to the appropriate microtiter wells already containing 0.1 mL of medium, resulting in the required final drug concentrations. Following drug addition, the plates were incubated at 37 °C, 5% carbon dioxide, 95% air, and 100% relative humidity for an additional 48 hours. For adherent cells, the test was finished by the addition of cold Cl3COOH. Cells were fixed in situ by the addition of 50 μL of cold 50% (w/v) Cl3COOH, and incubated at 4 °C for 1 hour. The supernatant was discarded, and the plates were washed with H2O (5×) and dried in air. Sulforhodamine B (SRB) solution (0.1 mL) at 0.4% (w/v) in 1% CH3COOH was added to each well, and plates were incubated at RT for 10 min. After staining, the unbound dye was removed by washing five times with 1% CH3COOH, and the plates were dried in the air. The bound stain is afterward solubilized with a 10 mM trizma base, and the absorbance is read on an automated plate reader at λ = 515 nm. Utilizing the seven absorbance measurements [time zero (tz), control growth (c), and test growth in the presence of the drug at the five concentration levels (ti)], the percentage growth was determined at each of the drug concentration levels. Growth inhibition (%) was calculated as: [(ti − tz)/(c − tz)] × 100, for concentrations where ti ≥ tz (1) [(ti − tz)/(tz)] × 100, for concentrations where ti < tz. (2) Three dose‒response parameters were calculated as follows. GI50 (growth inhibition of 50%) was determined from Equation (3), which is the drug concentration resulting in a 50% reduction in the net protein increase (as measured by SRB staining) in control cells in the course of the drug incubation. [(ti − tz)/(c − tz)] × 100 = 50 (3)

MDA-MB-468 = details: Homo sapiens; MDA-MB-468, Breast Cancer
Method: as §1

PC-3 = details: Homo sapiens; PC-3, Prostate Cancer
Method: as §1

SK-OV-3 = details: Homo sapiens; SK-OV-3, Ovarian Cancer
Method: as §1

NCI-H23 = details: Homo sapiens; NCI-H23, Non-small-Cell Lung Cancer
Method: as §1

RPMI-8226 = details: Homo sapiens; RPMI-8226, Leukemia
Method: as §1

HCC-2998 = details: Homo sapiens; HCC-2998, Colon Cancer
Method: as §1

HL-60(TB) = details: Homo sapiens, Leukemia
Method: as §1

KM12 = details: Homo sapiens; KM12, Colon Cancer
Method: as §1

SK-MEL-28 = details: Homo sapiens; SK-MEL-28, Melanoma
Method: as §1

M14 = details: Homo sapiens; M14, Melanoma
Method: as §1

UO-31 = details: Homo sapiens; UO-31, Renal Cancer
Method: as §1

DU-145 = details: Homo sapiens; DU-145, Prostate Cancer
Method: as §1

HT29 = details: Homo sapiens, HT-29; HT29, Colon Cancer
Method: as §1

786-0 = details: Homo sapiens; 786-0, Renal Cancer
Method: as §1

SF-295 = details: Homo sapiens; SF-295, CNS Cancer
Method: as §1

A498 = details: Homo sapiens; A498, Renal Cancer
Method: as §1

HCT-15 = details: Homo sapiens; HCT-15, Colon Cancer
Method: as §1

UACC-62 = details: Homo sapiens; UACC-62, Melanoma
Method: as §1

HOP-62 = details: Homo sapiens; HOP-62, Non-small-Cell Lung Cancer
Method: as §1

OVCAR-8 = details: Homo sapiens; OVCAR-8, Ovarian Cancer
Method: as §1

OVCAR-5 = details: Homo sapiens; OVCAR-5, Ovarian Cancer
Method: as §1

Molecule O=c1cc(-c2ccccc2)oc2cc(OCCCC[P+](c3ccccc3)(c3ccccc3)c3ccccc3)cc(O)c12 [3a] has a GI50 (SNB-75) of 165 nM, a GI50 (MDA-MB-468) of 128 nM and a GI50 (PC-3) of 305 nM. It also gave a GI50 (SK-OV-3) of 329 nM, a GI50 (NCI-H23) of 302 nM and a GI50 (RPMI-8226) of 205 nM. The GI50 (HCC-2998) was 345 nM, the GI50 (HL-60(TB)) was 167 nM and the GI50 (KM12) was 401 nM. It also gave a GI50 (SK-MEL-28) of 474 nM, a GI50 (M14) of 378 nM and a GI50 (UO-31) of 1240 nM. It also gave a GI50 (DU-145) of 507 nM, a GI50 (HT29) of 1280 nM and a GI50 (786-0) of 553 nM. It also gave a GI50 (SF-295) of 297 nM, a GI50 (A498) of 422 nM and a GI50 (HCT-15) of 628 nM. For the same molecule, the GI50 (UACC-62) was 292 nM, the GI50 (HOP-62) was 480 nM and the GI50 (OVCAR-8) was 350 nM. It also gave a GI50 (OVCAR-5) of 1150 nM.

Cc1ccc([P+](CCCCOc2cc(O)c3c(=O)cc(-c4ccccc4)oc3c2)(c2ccc(C)cc2)c2ccc(C)cc2)cc1 [3b] gave a GI50 (SNB-75) of 219 nM, a GI50 (MDA-MB-468) of 123 nM and a GI50 (PC-3) of 182 nM. The GI50 (SK-OV-3) was 301 nM, the GI50 (NCI-H23) was 241 nM and the GI50 (RPMI-8226) was 144 nM. For the same molecule, the GI50 (HCC-2998) was 380 nM, the GI50 (HL-60(TB)) was 140 nM and the GI50 (KM12) was 160 nM. For the same molecule, the GI50 (SK-MEL-28) was 514 nM, the GI50 (M14) was 331 nM and the GI50 (UO-31) was 177 nM. For the same molecule, the GI50 (DU-145) was 223 nM, the GI50 (HT29) was 855 nM and the GI50 (786-0) was 373 nM. For the same molecule, the GI50 (SF-295) was 215 nM, the GI50 (A498) was 400 nM and the GI50 (HCT-15) was 311 nM. For the same molecule, the GI50 (UACC-62) was 344 nM, the GI50 (HOP-62) was 307 nM and the GI50 (OVCAR-8) was 337 nM. It also gave a GI50 (OVCAR-5) of 684 nM.

Molecule COc1ccc([P+](CCCCOc2cc(O)c3c(=O)cc(-c4ccccc4)oc3c2)(c2ccc(OC)cc2)c2ccc(OC)cc2)cc1 [3c] has a GI50 (SNB-75) of 344 nM, a GI50 (MDA-MB-468) of 248 nM and a GI50 (PC-3) of 320 nM. The GI50 (SK-OV-3) was 382 nM, the GI50 (NCI-H23) was 423 nM and the GI50 (RPMI-8226) was 235 nM. It also gave a GI50 (HCC-2998) of 300 nM, a GI50 (HL-60(TB)) of 288 nM and a GI50 (KM12) of 207 nM. It also gave a GI50 (SK-MEL-28) of 453 nM, a GI50 (M14) of 478 nM and a GI50 (UO-31) of 1480 nM. For the same molecule, the GI50 (DU-145) was 410 nM, the GI50 (HT29) was 1250 nM and the GI50 (786-0) was 1210 nM. It also gave a GI50 (SF-295) of 1060 nM, a GI50 (A498) of 1570 nM and a GI50 (HCT-15) of 1550 nM. The GI50 (UACC-62) was 317 nM, the GI50 (HOP-62) was 732 nM and the GI50 (OVCAR-8) was 408 nM. It also gave a GI50 (OVCAR-5) of 852 nM.

O=c1cc(-c2ccccc2)oc2cc(OCCCC[P+](c3ccc(F)cc3)(c3ccc(F)cc3)c3ccc(F)cc3)cc(O)c12 [3d] showed a GI50 (SNB-75) of 1670 nM, a GI50 (MDA-MB-468) of 1100 nM and a GI50 (PC-3) of 1760 nM. For the same molecule, the GI50 (SK-OV-3) was 1620 nM, the GI50 (NCI-H23) was 1650 nM and the GI50 (RPMI-8226) was 1310 nM. For the same molecule, the GI50 (HCC-2998) was 1670 nM, the GI50 (HL-60(TB)) was 1340 nM and the GI50 (KM12) was 1700 nM. For the same molecule, the GI50 (SK-MEL-28) was 1690 nM, the GI50 (M14) was 1750 nM and the GI50 (UO-31) was 1850 nM. For the same molecule, the GI50 (DU-145) was 1720 nM, the GI50 (HT29) was 1840 nM and the GI50 (786-0) was 1830 nM. The GI50 (SF-295) was 1520 nM, the GI50 (A498) was 2070 nM and the GI50 (HCT-15) was 1850 nM. The GI50 (UACC-62) was 2050 nM, the GI50 (HOP-62) was 1560 nM and the GI50 (OVCAR-8) was 1840 nM. For the same molecule, the GI50 (OVCAR-5) was 3000 nM.
